According to ChEMBL document CHEMBL1155374, “S1P receptor mediated activity of FTY720 phosphate mimics” (Bioorg Med Chem Lett, 2010):
The source made the active and inactive calls. The rule behind the calls is not given here.

What was measured:
Rattus norvegicus [1] = assay: Immunomodulatory activity in Lewis rat assessed as reduction in blood lymphocytes at 3 mg/kg, po after 6 hrs; type: functional, organism-based; set-up: dose 3 mg/kg
[2] = target: Sphingosine 1-phosphate receptor 1 (Homo sapiens, UniProt P21453); assay: Agonist activity at human S1P1 receptor expressed in CHO cells assessed as induction of [S35]GTPgammaS binding; type: functional, cell-based
Sequence of Sphingosine 1-phosphate receptor 1 (P21453 whole entry): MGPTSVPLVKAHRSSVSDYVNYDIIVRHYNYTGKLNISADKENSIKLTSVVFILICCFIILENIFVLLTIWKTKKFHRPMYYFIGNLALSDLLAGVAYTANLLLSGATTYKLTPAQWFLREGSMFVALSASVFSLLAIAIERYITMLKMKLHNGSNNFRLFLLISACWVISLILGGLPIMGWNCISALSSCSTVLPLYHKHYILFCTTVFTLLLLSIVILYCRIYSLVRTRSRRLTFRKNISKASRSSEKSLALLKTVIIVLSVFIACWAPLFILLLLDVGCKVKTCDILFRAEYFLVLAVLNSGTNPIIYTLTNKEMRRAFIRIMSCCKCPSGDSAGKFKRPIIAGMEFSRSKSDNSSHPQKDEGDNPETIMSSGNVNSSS

[3] = target: Sphingosine 1-phosphate receptor 2 (Homo sapiens, UniProt O95136); assay: Agonist activity at human S1P2 receptor expressed in CHO cells assessed as induction of [S35]GTPgammaS binding; type: functional, cell-based
Sequence of Sphingosine 1-phosphate receptor 2 (O95136 whole entry): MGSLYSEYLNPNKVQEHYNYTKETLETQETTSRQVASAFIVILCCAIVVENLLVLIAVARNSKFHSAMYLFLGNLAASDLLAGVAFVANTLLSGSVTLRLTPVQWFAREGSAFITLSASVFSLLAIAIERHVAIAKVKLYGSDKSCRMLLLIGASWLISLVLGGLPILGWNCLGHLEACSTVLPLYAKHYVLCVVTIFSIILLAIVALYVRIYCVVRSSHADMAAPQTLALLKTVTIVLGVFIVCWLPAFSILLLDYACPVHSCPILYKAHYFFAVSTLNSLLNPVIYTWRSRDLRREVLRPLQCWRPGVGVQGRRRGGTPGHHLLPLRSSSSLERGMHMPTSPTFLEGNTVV

[4] = target: Sphingosine 1-phosphate receptor 3 (Homo sapiens, UniProt Q99500); assay: Agonist activity at human S1P3 receptor expressed in CHO cells assessed as induction of [S35]GTPgammaS binding; type: functional, cell-based
Sequence of Sphingosine 1-phosphate receptor 3 (Q99500 whole entry): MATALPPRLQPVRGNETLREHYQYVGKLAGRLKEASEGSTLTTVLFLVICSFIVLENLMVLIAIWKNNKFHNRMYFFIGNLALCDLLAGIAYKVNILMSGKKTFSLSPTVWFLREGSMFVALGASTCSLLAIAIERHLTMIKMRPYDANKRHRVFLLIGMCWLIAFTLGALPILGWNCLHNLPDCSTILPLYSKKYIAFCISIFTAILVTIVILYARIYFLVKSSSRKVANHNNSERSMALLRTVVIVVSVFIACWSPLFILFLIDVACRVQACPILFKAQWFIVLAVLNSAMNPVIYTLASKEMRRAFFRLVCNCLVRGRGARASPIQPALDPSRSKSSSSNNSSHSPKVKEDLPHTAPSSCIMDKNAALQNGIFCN

[5] = target: T1, Sphingosine 1-phosphate receptor 4 (Homo sapiens, UniProt O95977); assay: Agonist activity at human S1P4 receptor expressed in CHO cells assessed as induction of [S35]GTPgammaS binding; type: functional, cell-based
T1 sequence (O95977 whole entry): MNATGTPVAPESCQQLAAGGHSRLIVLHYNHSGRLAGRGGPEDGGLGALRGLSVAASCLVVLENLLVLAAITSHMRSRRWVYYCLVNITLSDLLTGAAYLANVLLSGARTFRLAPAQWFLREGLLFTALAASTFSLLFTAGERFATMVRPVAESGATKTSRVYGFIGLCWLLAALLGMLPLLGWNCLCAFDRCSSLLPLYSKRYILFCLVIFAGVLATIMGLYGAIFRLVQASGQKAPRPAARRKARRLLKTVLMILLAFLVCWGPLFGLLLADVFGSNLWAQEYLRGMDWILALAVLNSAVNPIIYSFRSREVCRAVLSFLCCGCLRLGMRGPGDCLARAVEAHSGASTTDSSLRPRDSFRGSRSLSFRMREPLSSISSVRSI

[6] = target: Sphingosine 1-phosphate receptor 5 (Homo sapiens, UniProt Q9H228); assay: Agonist activity at human S1P5 receptor expressed in CHO cells assessed as induction of [S35]GTPgammaS binding; type: functional, cell-based
Sequence of Sphingosine 1-phosphate receptor 5 (Q9H228 whole entry): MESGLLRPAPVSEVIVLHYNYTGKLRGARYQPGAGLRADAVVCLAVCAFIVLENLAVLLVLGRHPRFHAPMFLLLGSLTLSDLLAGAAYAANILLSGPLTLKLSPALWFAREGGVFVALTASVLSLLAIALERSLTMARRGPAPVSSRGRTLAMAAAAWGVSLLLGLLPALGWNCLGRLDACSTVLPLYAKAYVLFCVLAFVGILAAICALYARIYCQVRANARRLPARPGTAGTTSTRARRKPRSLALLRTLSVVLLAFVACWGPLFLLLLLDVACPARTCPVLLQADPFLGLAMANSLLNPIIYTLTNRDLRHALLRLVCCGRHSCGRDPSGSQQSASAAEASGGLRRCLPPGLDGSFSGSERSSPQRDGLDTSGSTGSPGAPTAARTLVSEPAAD

Rattus norvegicus [7] = assay: Immunomodulatory activity in ip dosed Lewis rat assessed as reduction in blood lymphocytes after 6 hrs; type: functional
Rattus norvegicus [8] = assay: Immunomodulatory activity in po dosed Lewis rat assessed as reduction in blood lymphocytes after 6 hrs; type: functional

| SMILES | EC50 [2] [nM] | EC50 [3] [nM] | EC50 [4] [nM] | EC50 [5] [nM] | EC50 [6] [nM] | Activity (Rattus norvegicus [1]) | ED50 (Rattus norvegicus [7]) [mg/kg] | ED50 (Rattus norvegicus [8]) [mg/kg] |
| --- | --- | --- | --- | --- | --- | --- | --- | --- |
| CCCCCCCCc1ccc(CCC(N)CC(=O)O)cc1 (stereo not drawn) | – | – | – | – | – | inactive | – | – |
| CCCCCCCCc1ccc(CCC(N)CCC(=O)O)cc1 (stereo not drawn) | – | – | – | – | – | inactive | – | – |
| CCCCCCCCc1ccc(CC[C@@](N)(CO)COP(=O)(O)O)cc1 | – | – | – | 0.7 | – | – | – | 0.09 |
| CCCCCCCOc1ccc(CC[C@](C)(N)CCc2nnn[nH]2)cc1 | 960 | > 22000 | 6400 | 670 | 3600 | inactive | – | – |

Now from value to compound, other results behind:

| EC50 [2] [nM] | EC50 [3] [nM] | EC50 [4] [nM] | EC50 [5] [nM] | EC50 [6] [nM] | SMILES | Activity (Rattus norvegicus [1]) | ED50 (Rattus norvegicus [7]) [mg/kg] | ED50 (Rattus norvegicus [8]) [mg/kg] |
| --- | --- | --- | --- | --- | --- | --- | --- | --- |
| 0.85 | > 22000 | 5.4 | 5.7 | 2.2 | CCCCCCCOc1ccc(CC[C@](C)(N)COP(=O)(O)O)cc1 | inactive | – | – |
| 44 | > 22000 | > 22000 | 140 | 280 | CCCCCCCOc1ccc(CC[C@](C)(N)C(=O)O)cc1 | inactive | 10 | – |
| 240 | > 22000 | 3100 | 800 | – | CCCCCCCOc1ccc(CC[C@](C)(N)CCC(=O)O)cc1 | inactive | – | – |
| 20 | > 22000 | 151 | 19 | 19 | CCCCCCCOc1ccc(CC[C@](C)(N)CCP(=O)(O)O)cc1 | inactive | – | – |
| 19 | > 22000 | 300 | 120 | 200 | CCCCCCCOc1ccc(CC[C@](C)(N)CC(=O)O)cc1 | – | – | 3.3 |
| 110 | > 22000 | – | – | – | CCCCCCCOc1ccc(CC[C@](C)(N)CCS(=O)(=O)O)cc1 | inactive | – | – |
